Assay results taken from patent US20210186903A1, “TREATMENT FOR DEMYELINATING DISEASE” (CAMBRIDGE ENTERPRISE LIMITED, priority 2018, published 2021).
Entries after “also recorded” stand apart in the source; their conditions may differ.

Columns and labels:
[1] = tested on: young adult OPCs (2-3 months old); conditions: T3 40 ng/ml, 9cRA 50 nM, miconazole 1 μM, benztropine 1.5 μM, O4, CNPase, MBP markers
Description: Adult rats (2-27 months) were decapitated after lethal injection of phenobarbital into the tail vein. The brains were removed quickly and placed into ice-cold isolation medium (Tab. S3, alternatively Hibernate A (Brainbits). The telencephalon and cerebellum were dissected in isolation medium; meninges, and the olfactory bulb were mechanically removed and the brain tissue was mechanically minced into 1 mm3 pieces. The tissue pieces were spun down at 100 g for 1 min at RT and the tissue was washed in HBSS− (no Mg2+ and Ca2+, Gibco). Each half of the brain was mixed with 5 ml of dissociation solution (34 U/ml papain (Worthington), 20 μg/ml DNAse Type IV (Gibco) in isolation medium). The brain tissue was dissociated on a shaker (50 rpm) 494 for 40 min at 35° C. The digestion was stopped by addition of ice cold HBSS−. The tissue was centrifuged (200 g, 3 min, RT), the supernatant completely aspirated and the tissue resuspended in isolation medium supplemented with 2% B27 and 2 mM sodium-pyruvate (trituration solution). The tissue was allowed to sit in this solution for 5 min. To obtain a single cell suspension the tissue suspension was triturated 10 times using first a 5 ml serological pipette and subsequently three fire polished glass pipettes (opening diameter >0.5 mm). […]

aged OPCs [2] = experiment: Differentiation assay of cultured aged OPCs; type: cell-based, rat; conditions: for differentiation of aged OPCs: aged OPCs (20-24 months), T3 40 ng/ml, 9cRA 50 nM, miconazole 1 μM, benztropine 1.5 μM
Description: Adult rats (2-27 months) were decapitated after lethal injection of phenobarbital into the tail vein. The brains were removed quickly and placed into ice-cold isolation medium (Tab. S3, alternatively Hibernate A (Brainbits). The telencephalon and cerebellum were dissected in isolation medium; meninges, and the olfactory bulb were mechanically removed and the brain tissue was mechanically minced into 1 mm3 pieces. The tissue pieces were spun down at 100 g for 1 min at RT and the tissue was washed in HBSS− (no Mg2+ and Ca2+, Gibco). Each half of the brain was mixed with 5 ml of dissociation solution (34 U/ml papain (Worthington), 20 μg/ml DNAse Type IV (Gibco) in isolation medium). The brain tissue was dissociated on a shaker (50 rpm) 494 for 40 min at 35° C. The digestion was stopped by addition of ice cold HBSS−. The tissue was centrifuged (200 g, 3 min, RT), the supernatant completely aspirated and the tissue resuspended in isolation medium supplemented with 2% B27 and 2 mM sodium-pyruvate (trituration solution). The tissue was allowed to sit in this solution for 5 min. To obtain a single cell suspension the tissue suspension was triturated 10 times using first a 5 ml serological pipette and subsequently three fire polished glass pipettes (opening diameter >0.5 mm). After each trituration step the tissue suspension was allowed to sediment (approximately 1-2 min) and the supernatant (approximately 2 ml), containing the cells, was transferred into a fresh tube. After each round of trituration 2 ml of fresh trituration solution were added. To remove accidentally transferred undigested tissue bits, the collected supernatant was filtered through 70 μm cell strainers into tubes that contained 90% isotonic Percoll (GE Healthcare, 17-0891-01, in 10×PBS pH7.2 (Lifetech). The final volume was topped up with phenol-red free DMEM/F12 with HEPES (Gibco) and mixed to yield a homogenous suspension with a final Percoll concentration of 22.5%. The single cell suspension was separated from remaining debris particles by gradient density centrifugation (800 g, 20 min, RT, without break). The myelin debris and all layers without cells were discarded and the brain cell containing phase (last 2 ml) and cell pellet were resuspended in HBSS+ and combined in a fresh 15 ml tubes and centrifuged (300 g, 5 min, RT). The cell pellet was resuspended in red blood cell lysis buffer (Sigma, R7757) and incubated for 1 min at RT to remove red blood cells. 10 ml of HBSS+ were added to this cell suspension and spun down (300 g, 5 min, RT). The cell pellets were resuspended in 0.5 ml modified Milteny washing buffer (MWB, 2 mM EDTA, 2 mM Na-Pyruvate, 0.5% BSA in PBS, pH 7.3) supplemented with 10 ng/ml human recombinant insulin (Gibco). […]

aged OPCs [3] = experiment: qRT-PCR for OPC genes and Cdkn2a in cultured aged OPCs; type: cell-based, rat; conditions: aged OPCs (≥18 months)
Description: After isolation, OPCs were left to recover in OPC medium (60 μg/ml N-Acetyl cysteine (Sigma), 10 μg/ml human recombinant insulin (Gibco), 1 mM sodium pyruvate (Gibco), 50 μg/ml apo-transferrin (Sigma), 16.1 μg/ml putrescine (Sigma), 40 ng/ml sodium selenite (Sigma), 60 ng/ml progesterone (Sigma), 330 μg/ml bovine serum albumin (Sigma)) supplemented with b-FGF and PDGF (30 ng/ml each, Peprotech).
RNA was isolated from freshly purified OPCs or from cultured OPCs according to the Directzol RNA MicroPrep Kit (Zymo Research; R2061). All RNA samples were stored at −80° C. prior to further processing. cDNA was generated using the QuantiTect Reverse Transcription Kit's according to the instructions of the manufacturer (Qiagen; 205310). For RT-qPCR, primers (see Extended Data Tab. 5) were used at a concentration of […]. The efficiency of each primer was greater than […] as determined for each primer pair by serial dilutions of OPC cDNA. cDNA, primers, and the Syber Green Master Mix (Qiagen; 04141) were mixed as instructed by the manufacturer, and RT-qPCR and melting curve analysis were performed on Life Technologies' Quantstudio 6 Flex Real-Time PCR System. Fold changes in gene expression were calculated using the delta delta Ct method in Microsoft Excel. Statistical significance was determined using two-tailed unpaired t-tests assuming equal variances.

aged OPCs [4] = experiment: Comet assay (DNA damage) of aged OPCs; type: cell-based, rat
Description: For comet assays of freshly isolated OPCs approximately 5000 OPCs were resuspended in 100 μl PBS and mixed with 300 μl 1% low melting point agarose (37° C.). Alternatively, when OPCs were cultured prior to the assay, the cells were detached using TrypLE 1× Select (Gibco) for 8 min at 37° C. The comet assay was then performed as described in reference 33. Briefly, OPCs were centrifuged at 300 g for 5 min. at room temperature and the cell pellet was resuspended with 100 μl PBS and then mixed with 300 μl molten low-melting point agarose pre-incubated at 37° C. The cell-agarose suspension was then applied gently onto polysine slides that were pre-treated with 1% agarose and allowed 590 to solidify at 4° C. The slides were submersed in alkaline cell lysis buffer (0.3M NaOH, 100 mM EDTA, 0.1% (w/v) N592 Lauroylsarcosine (Sigma, 61745), 1.2M NaCl in ddH2O) for 16 hours at 4° C. in the dark. […] Finally, electrophoresed and propidium iodide stained DNA was visualized using a Zeiss Axiovision Fluorescence microscope (Carl Zeiss), and 50-100 nuclei per animal were visually scored according to published protocols^34. Statistical significance was determined comparing respective damage categories between experimental groups by a two-tailed unpaired t-test. […]

aged female SD rats = experiment: Remyelination after ethidium bromide lesion of caudal cerebellar peduncle in aged rats; type: in vivo, rat; conditions: for degree of remyelination versus control animals: aged rats fed ad libitum, metformin 300 mg/kg bodyweight in drinking water from 15 months, lesion at 18 months, assessed 50 days later, rank
Description: The animals were housed under standard laboratory conditions on a 12 h light/dark cycle with constant access to food and water. […] For metformin treatment 15 months old female SD rats that were fed ad libitum received metformin (Glucophage) in their drinking water (300 mg/kg bodyweight per day). Metformin treatment was interrupted for two days before and three days after surgery and then commenced to the end of the study (21 days after lesion induction). Fluid consumption was continuously monitored to adapt dosages. For studies involving demyelination, female Sprague Dawley rats (Harlan Laboratories) 18 months of age were used. The rats were anesthetized with buprenorphine (0.03 mg/kg, s.c.) 471 and 2.5% isoflurane. Demyelination was induced by stereotaxic injection of 4 μl of 0.01% ethidium bromide (EB) into the caudal cerebellar peduncles (CCPs), as previously described 28. EB was delivered at a rate of 1 μl/min. After EB delivery the injection needle remained in position for additional 4 min. To assess remyelination the rats were transcardially perfused with 4% glutaraldehyde and 0.4 mM CaCl2) in PBS. The cerebellum was cut in to transverse 1 mm thick sections. The tissue was fixed in 2% osmium-tetroxide at 4° C. overnight, dehydrated through a series of washes in ethanol and propylene-oxide and embedded in resin. From the resin blocks 1 μm thick sections were cut and stained with 1% toluidine blue.

SMILES | differentiation of young OPCs [1] | differentiation of aged OPCs (aged OPCs [2]) | proportion of MBP expressing oligodendrocytes with highly arborized morphology (aged OPCs [2]; aged OPCs exposed to metformin, in the presence of pro-differentiation factors) | differentiation of aged OPCs (differentiation potential), agent added before differentiation (aged OPCs [2]; aged OPCs, agent added prior to pro-differentiation compounds / onset of differentiation, Olig2+MBP+ cells) | expression of Cdkn2a (senescence marker) (aged OPCs [3]; 100 μM metformin during first 5 days of culture) | expression of Pdgfra and Ascl1 (OPC self-renewal genes) (aged OPCs [3]; 100 μM metformin during first 5 days of culture with growth factors) | DNA damage, comet assay (aged OPCs [4]; aged OPCs (≥18 months), 100 μM metformin during first 5 days of culture) | hallmarks of aging of aged OPCs (aged OPCs [4]; aged OPCs, DNA damage among the hallmarks) | degree of remyelination versus control animals (aged female SD rats) | degree of remyelination versus control animals (aged female SD rats; listed as Metformin) | degree of remyelination versus ADF animals (aged female SD rats; aged rats, metformin 300 mg/kg in drinking water for three months prior to lesion, compared with alternate day fasting)
CC1=C(/C=C/C(C)=C\C=C\C(C)=C\C(=O)O)C(C)(C)CCC1 [9-cis-retinoic acid] | enhanced differentiation in young | but not aged OPCs |  |  |  |  |  |  |  |  | 
CN1[C@@H]2CC[C@H]1C[C@@H](OC(c1ccccc1)c1ccccc1)C2 [benztropine] | enhanced differentiation in young | but not aged OPCs |  |  |  |  |  |  |  |  | 
CN(C)C(=N)NC(=N)N [metformin, N,N-dimethylbiguanide] |  |  | significant increase | restores the ability of aged OPCs to differentiate; also recorded: enhanced differentiation of aged OPCs | expressed significantly less Cdkn2a | increased their expression of Pdgfra and Ascl1 | less DNA damage | ameliorates hallmarks of ageing | enhances remyelination in aged rats | significantly higher compared to control animals | comparable to animals undergoing ADF
